Measured values published in ChEMBL document CHEMBL3638458, “Amine substituted methanesulfonamide derivatives as vanilloid receptor ligands” (2014).

Target: Transient receptor potential cation channel subfamily V member 1 (Homo sapiens, UniProt Q8NER1)
Assay: FLIPR Assay: The FLIPR protocol consists of 2 substance additions. First the compounds to be tested (10 μM) are pipetted onto the cells and the Ca2+ influx is compared with the control (capsaicin 10 μM). This provides the result in % activation based on the Ca2+ signal after the addition of 10 μM of capsaicin (CP). After 5 minutes incubation, 100 nM of capsaicin are applied and the Ca2+ influx is also determined. Desensitising agonists and antagonists lead to suppression of the Ca2+ influx. The % inhibition is calculated compared to the maximum achievable inhibition with 10 μM of capsazepine. Starting from the percentage displacement caused by different concentrations of the compounds to be tested of general formula I, IC50 inhibitory concentrations which cause a 50-percent displacement of capsaicin were calculated. K1 values for the test substances were obtained by conversion by means of the Cheng-Prusoff equation (Cheng, Prusoff; Biochem. Pharmacol. 22, 3099-3108, 1973).

Sequence of Transient receptor potential cation channel subfamily V member 1 (Q8NER1 whole entry): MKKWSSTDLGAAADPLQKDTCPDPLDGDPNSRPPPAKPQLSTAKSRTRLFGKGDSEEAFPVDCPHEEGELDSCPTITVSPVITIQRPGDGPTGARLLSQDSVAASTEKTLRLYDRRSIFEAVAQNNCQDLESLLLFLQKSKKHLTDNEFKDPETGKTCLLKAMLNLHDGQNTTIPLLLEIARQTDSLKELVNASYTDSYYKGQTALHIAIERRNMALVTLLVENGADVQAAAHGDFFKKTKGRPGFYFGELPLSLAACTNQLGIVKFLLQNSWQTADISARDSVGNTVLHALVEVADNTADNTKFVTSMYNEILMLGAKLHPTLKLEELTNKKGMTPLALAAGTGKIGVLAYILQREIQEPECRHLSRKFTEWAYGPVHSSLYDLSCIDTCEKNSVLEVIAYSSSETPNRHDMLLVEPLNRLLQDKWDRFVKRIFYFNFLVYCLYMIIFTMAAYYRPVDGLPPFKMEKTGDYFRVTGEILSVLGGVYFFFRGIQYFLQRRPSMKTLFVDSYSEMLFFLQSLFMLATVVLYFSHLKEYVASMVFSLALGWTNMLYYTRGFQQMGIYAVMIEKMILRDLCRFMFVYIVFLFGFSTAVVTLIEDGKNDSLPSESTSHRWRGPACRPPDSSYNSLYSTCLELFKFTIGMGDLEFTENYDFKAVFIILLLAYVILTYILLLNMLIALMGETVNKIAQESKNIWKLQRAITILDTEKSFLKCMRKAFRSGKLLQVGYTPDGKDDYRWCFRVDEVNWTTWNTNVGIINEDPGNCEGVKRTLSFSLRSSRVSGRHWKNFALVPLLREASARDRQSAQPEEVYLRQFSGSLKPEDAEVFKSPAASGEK

| SMILES | Ki [nM] |
| --- | --- |
| CCS(=O)(=O)NCc1ccc(C(C)C(=O)NCc2ccc(C(F)(F)F)nc2N2CCC(C)CC2)cc1F (centres undefined) | 4 |
| Cc1cc(C(C)C(=O)NCc2ccc(C(F)(F)F)nc2N2CCCC2)ccc1CNS(C)(=O)=O (centres undefined) | 50 |
| CC1CCN(c2nc(C(F)(F)F)ccc2CNC(=O)C(C)c2cccc(CNS(C)(=O)=O)c2)CC1 (centres undefined) | 102 |
| CC(C(=O)NCc1ccc(C(F)(F)F)nc1N1CCCC1)c1ccc(CNS(C)(=O)=O)cc1 (centres undefined) | 20 |
